# Source: patent publication US6974799B2, “Compositions containing mixtures of tetrapeptides and tripeptides” (Sederma S.A.S., priority 2003, dated 2005)
# No end group written: not given here. *: point of attachment. Oleoyl = CCCCCCCC/C=C\CCCCCCCC(=O)*; Palmitoyl = CCCCCCCCCCCCCCCC(=O)*
# Tests used:
# Collagen I = Collagen I in supernatant of normal human skin fibroblasts, Elisa; format: cell-based; conditions: for Collagen I: Percentage of variation with respect to solvent: 3 × 10E−4% ascorbic acid, 3 days; for collagen I stimulation (in words): alone or in combination; for collagen I stimulation (in words) / effect on biomolecule synthesis under these experimental conditions (in words): Table 1 conditions
# Experimental: In generating the data in Table 1, normal human skin fibroblasts were cultivated in 24 well-plates in DMEM with 10% of Fetal Calf Serum (“FCS”) during 24 h, then rinsed. The cells then received the products to be tested in a medium DMEM without FCS (“Fetal Calf Serum”) containing ascorbic acid. The contact of cells with product was carried out during 3 days, then supernatants was taken and frozen. Each test includes a negative control without solvent, a control solvent and a positive control (10^−6% of Transforming Growth Factor-β (“TGF-β”)). Each determination was carried out n=3. Several repetitions independent of the tests can be made. Assaying of the interesting molecules was carried out by Elisa (Collagen I & IV; Fibronectine) or by a colorimetric method (hyaluronic acid).
# (§1) Normal human skin fibroblasts are cultivated in 24 well-plates in DMEM with 10% of FCS during 24 h, then rinsed. The cells then received the products to be tested in a medium DMEM without FCS containing ascorbic acid. The contact of cells with product was carried out during 3 days, then supernatants are taken and frozen. Each test included a negative control without solvent, a control solvent and a positive control (10^E-6% of TGF-β). Each determination was carried out n=3. Several repetitions independent of the tests were made. Assaying of the interesting molecules was carried out by Elisa (Collagen I & IV; Fibronectine) and by a calorimetric method (hyaluronic acid).
# Collagen IV = Collagen IV in supernatant of normal human skin fibroblasts, Elisa; format: cell-based; conditions: 3 × 10E−4% ascorbic acid, 3 days
# Experimental: (§2) In generating the data in Table 1, normal human skin fibroblasts were cultivated in 24 well-plates in DMEM with 10% of Fetal Calf Serum (“FCS”) during 24 h, then rinsed. The cells then received the products to be tested in a medium DMEM without FCS (“Fetal Calf Serum”) containing ascorbic acid. The contact of cells with product was carried out during 3 days, then supernatants was taken and frozen. Each test includes a negative control without solvent, a control solvent and a positive control (10^−6% of Transforming Growth Factor-β (“TGF-β”)). Each determination was carried out n=3. Several repetitions independent of the tests can be made. Assaying of the interesting molecules was carried out by Elisa (Collagen I & IV; Fibronectine) or by a colorimetric method (hyaluronic acid). […] Higher concentrations were not tested because of cytotoxicity, and the other biomolecules were not assayed (n.t.=not tested) because of the lack of initial response in collagen I stimulation, which is the essential, primary parameter.
# as §1
# Hyaluronic Acid = assay: Hyaluronic acid in supernatant of normal human skin fibroblasts, colorimetric method; format: cell-based; conditions: 3 × 10E−4% ascorbic acid, 3 days
# Experimental: as §2, §1
# collagen [1] = assay: Increase in synthesis of collagen (in vitro), fibroblasts of human skin, ELISA; format: cell-based; conditions: 72 hours
# Experimental: Fibroblasts of human skin are incubated for 72 hours in two culture mediums enriched in vitamin C (1.5 and 15 ppm), in the presence of the peptide N-palmitoyl-Gly-Gln-Pro-Arg (SEQ ID NO: 3) at two different concentrations, 2.5 ppm and 3.6 ppm. After this incubation, the media is collected and cell viability is evaluated by MTT assay. The measurement of collagen is then carried out by ELISA in each cell lysate. Tests were done in triplicate.
# In parallel, negative controls should be carried out under the same conditions, but in the absence of the peptides.
# The following results, shown in Table 2, give the increase of collagen synthesis compared to the results obtained in the blank tests (without peptide): […]
# Fibronectin = Fibronectin in supernatant of normal human skin fibroblasts, Elisa; format: cell-based; conditions: 3 × 10E−4% ascorbic acid, 3 days
# Experimental: as §2, §1
# collagen [2] = conditions: background statement on EYELISS components; cited from earlier work
substance,measurement,setting,value
Acetyl-YGG,Collagen I: Percentage of variation with respect to solvent,Collagen I; 1 ppm,−2%
same,Collagen I: Percentage of variation with respect to solvent,Collagen I; 3 ppm,+5%
same,Collagen I: Percentage of variation with respect to solvent,Collagen I; 5 ppm,−11%
same,collagen I stimulation (in words),Collagen I,do not show collagen I stimulation
"N-Palmitoyl-Gly-Gln-Pro-Arg (Palmitoyl-GQPR) [Pal GQPR, 500 ppm solution sold as RIGIN by SEDERMA]",Collagen IV: Percentage of variation with respect to solvent,Collagen IV; 0.5 ppm,+5%
same,Collagen IV: Percentage of variation with respect to solvent,Collagen IV; 1.5 ppm,−8%
same,Collagen IV: Percentage of variation with respect to solvent,Collagen IV; 2.5 ppm,−5%
same,Collagen IV: Percentage of variation with respect to solvent,Collagen IV; 3.64 ppm,−14%
same,Hyaluronic Acid: Percentage of variation with respect to solvent,Hyaluronic Acid; 0.5 ppm,−4%
same,Hyaluronic Acid: Percentage of variation with respect to solvent,Hyaluronic Acid; 1.5 ppm,+9%
same,Hyaluronic Acid: Percentage of variation with respect to solvent,Hyaluronic Acid; 2.5 ppm,−13%
same,Hyaluronic Acid: Percentage of variation with respect to solvent,Hyaluronic Acid; 3.64 ppm,−1%
same,Collagen I: Percentage of variation with respect to solvent,Collagen I; 0.5 ppm,+4%
same,Collagen I: Percentage of variation with respect to solvent,Collagen I; 1.5 ppm,−1%
same,Collagen I: Percentage of variation with respect to solvent,Collagen I; 2.5 ppm,+19%
same,Collagen I: Percentage of variation with respect to solvent,"Collagen I; 2.5 ppm, listed as N-Palmitoyl-Gly-Gln-Pro-Arg",+19%
same,Collagen I: Percentage of variation with respect to solvent,Collagen I; 3.64 ppm,+65%
same,Collagen I: Percentage of variation with respect to solvent,"Collagen I; 3.64 ppm, listed as tetrapeptide",+65%
same,effect on biomolecule synthesis under these experimental conditions (in words),Collagen I,stimulating effect
same,increase of collagen synthesis compared to blank tests (without peptide),"collagen [1]; peptide 2.5 ppm, Vitamin C 1.5 ppm",+10%
same,increase of collagen synthesis compared to blank tests (without peptide),"collagen [1]; peptide 2.5 ppm, Vitamin C 15 ppm",+27%
same,increase of collagen synthesis compared to blank tests (without peptide),"collagen [1]; peptide 3.6 ppm, Vitamin C 1.5 ppm",+29%
same,increase of collagen synthesis compared to blank tests (without peptide),"collagen [1]; peptide 3.6 ppm, Vitamin C 15 ppm",+42%
same,Fibronectin: Percentage of variation with respect to solvent,Fibronectin; 0.5 ppm,+1%
same,Fibronectin: Percentage of variation with respect to solvent,Fibronectin; 1.5 ppm,+15%
same,Fibronectin: Percentage of variation with respect to solvent,Fibronectin; 2.5 ppm,+35%
same,Fibronectin: Percentage of variation with respect to solvent,Fibronectin; 3.64 ppm,+56%
N-Palmitoyl-Gly-His-Lys [Pal GHK],Collagen IV: Percentage of variation with respect to solvent,Collagen IV; 1 ppm,+5%
same,Collagen IV: Percentage of variation with respect to solvent,Collagen IV; 3 ppm,−4%
same,Collagen IV: Percentage of variation with respect to solvent,Collagen IV; 5 ppm,+6%
same,Collagen IV: Percentage of variation with respect to solvent,Collagen IV; 7.3 ppm,−9%
same,Hyaluronic Acid: Percentage of variation with respect to solvent,Hyaluronic Acid; 1 ppm,+3%
same,Hyaluronic Acid: Percentage of variation with respect to solvent,Hyaluronic Acid; 3 ppm,+11%
same,Hyaluronic Acid: Percentage of variation with respect to solvent,Hyaluronic Acid; 5 ppm,0%
same,Hyaluronic Acid: Percentage of variation with respect to solvent,Hyaluronic Acid; 7.3 ppm,−1%
same,Collagen I: Percentage of variation with respect to solvent,Collagen I; 1 ppm,+9%
same,Collagen I: Percentage of variation with respect to solvent,Collagen I; 3 ppm,−11%
same,Collagen I: Percentage of variation with respect to solvent,Collagen I; 5 ppm,+11%
same,Collagen I: Percentage of variation with respect to solvent,"Collagen I; 5 ppm, listed as N-Palmitoyl-Gly-His-Lys",+11%
same,Collagen I: Percentage of variation with respect to solvent,Collagen I; 7.3 ppm,−9%
same,Collagen I: Percentage of variation with respect to solvent,"Collagen I; 7.3 ppm, listed as tripeptide",reduction in synthesis
same,effect on biomolecule synthesis under these experimental conditions (in words),Collagen I,essentially no effect
same,Fibronectin: Percentage of variation with respect to solvent,Fibronectin; 1 ppm,+8%
same,Fibronectin: Percentage of variation with respect to solvent,Fibronectin; 3 ppm,+2%
same,Fibronectin: Percentage of variation with respect to solvent,Fibronectin; 5 ppm,−15%
same,Fibronectin: Percentage of variation with respect to solvent,Fibronectin; 7.3 ppm,+13%
"N-Palmitoyl-Lys-Thr-Thr-Lys-Ser (Palmitoyl-KTTKS) [Pal KTTKS, commercially successful pentapeptide, MATRIXYL, available from SEDERMA, reference compound]",Collagen IV: Percentage of variation with respect to solvent,Collagen IV; 1 ppm,+6%
same,Collagen IV: Percentage of variation with respect to solvent,Collagen IV; 2 ppm,+12%
same,Collagen IV: Percentage of variation with respect to solvent,Collagen IV; 4 ppm,+15%
same,Collagen IV: Percentage of variation with respect to solvent,Collagen IV; 8 ppm,+22%
same,Hyaluronic Acid: Percentage of variation with respect to solvent,Hyaluronic Acid; 1 ppm,+3%
same,Hyaluronic Acid: Percentage of variation with respect to solvent,Hyaluronic Acid; 2 ppm,+26%
same,Hyaluronic Acid: Percentage of variation with respect to solvent,Hyaluronic Acid; 4 ppm,+28%
same,Hyaluronic Acid: Percentage of variation with respect to solvent,Hyaluronic Acid; 8 ppm,+31%
same,Collagen I: Percentage of variation with respect to solvent,Collagen I; 1 ppm,+8%
same,Collagen I: Percentage of variation with respect to solvent,Collagen I; 2 ppm,+30%
same,Collagen I: Percentage of variation with respect to solvent,Collagen I; 4 ppm,+48%
same,Collagen I: Percentage of variation with respect to solvent,Collagen I; 8 ppm,+93%
same,Fibronectin: Percentage of variation with respect to solvent,Fibronectin; 1 ppm,+24%
same,Fibronectin: Percentage of variation with respect to solvent,Fibronectin; 2 ppm,+20%
same,Fibronectin: Percentage of variation with respect to solvent,Fibronectin; 4 ppm,+74%
same,Fibronectin: Percentage of variation with respect to solvent,Fibronectin; 8 ppm,+100%
Oleoyl-RGD,Collagen I: Percentage of variation with respect to solvent,Collagen I; 1 ppm,+5%
same,Collagen I: Percentage of variation with respect to solvent,Collagen I; 3 ppm,−3%
same,collagen I stimulation (in words),Collagen I,do not show collagen I stimulation
Oleoyl-RGDS [oleoyl derivative of RGDS=Arg-Gly-Asp-Ser],Collagen I: Percentage of variation with respect to solvent,Collagen I; 1 ppm,−7%
same,Collagen I: Percentage of variation with respect to solvent,Collagen I; 3 ppm,−2%
same,collagen I stimulation (in words),Collagen I,do not show collagen I stimulation
"Pal-YGGF (Palmitoyl-YGGF) [palmitoyl derivative of YGGF=Tyr-Gly-Gly-Phe, fragment of enkephaline]",Collagen I: Percentage of variation with respect to solvent,Collagen I; 1 ppm,+5%
same,Collagen I: Percentage of variation with respect to solvent,Collagen I; 3 ppm,−6%
same,Collagen I: Percentage of variation with respect to solvent,Collagen I; 5 ppm,+4%
same,collagen I stimulation (in words),Collagen I,do not show collagen I stimulation
"Transforming Growth Factor-β [TGF-β, reference compound]",Collagen IV: Percentage of variation with respect to solvent,Collagen IV; 10^E−6%,+4%
same,Hyaluronic Acid: Percentage of variation with respect to solvent,Hyaluronic Acid; 10^E−6%,+43%
same,Fibronectin: Percentage of variation with respect to solvent,Fibronectin; 10^E−6%,+176%
Val-Trp,collagen stimulating activity (in words),collagen [2],no significant collagen stimulating activity
